US11058654B2, “Compositions and methods for the treatment of hemoglobinopathies and thalassemias” (AXCELLA HEALTH INC., priority 2018, dated 2021)
Where two headings read alike, the source gives them in different places.

Legend:
[1] = Plasma pharmacokinetics after oral gavage in male Sprague-Dawley rats; format: in vivo; parameters: AUC(0-t): concentration or dose not given beside the values; conditions: rat
Method: A pharmacokinetic (PK) analysis was performed on plasma concentrations of various combinations of amino acid compounds administered by oral gavage to male Sprague-Dawley rats. Four animals were dosed with RCitNacQCarLHKVS, a test article comprising ten amino acid components: arginine, citrulline, N-acetylcysteine, glutamine, carnitine, leucine, histidine, lysine, valine, and serine (Table 19). Animals were fasted for 2 hours prior to dose administration. Plasma samples were taken immediately pre-dose and 0.5, 1, 2, 3, 4, and 5 hours post-dose.
Bioanalysis of collected plasma samples for amino acid content was performed at Axcella Health using an LC-MS method (Section 2.1). Bioanalytical data were analyzed using noncompartmental analysis with Phoenix® WinNonLin® (v8.1).
An LC/MS method utilizing HILIC chromatography and high-resolution mass spectrometry was used to quantify amino acids in rat plasma. The samples were prepared by protein precipitation and spiked with stable-labeled amino acid internal standard for each analyte. […] QCs, spiked into rat plasma, were utilized to assess the accuracy of the method.
PK parameters of test article components were determined from individual rat plasma concentration-time data by employing a noncompartmental approach using Phoenix WinNonlin® (Version 8.1) software. Nominal times were used to calculate the toxicokinetic parameters. […] This program analyzed data using the standard methods described by Gibaldi and Perrier (see M. Gibaldi and D. Perrier, Pharmacokinetics, 2nd edition, New York: Marcel-Dekker, Inc.; 1982.).

TNFa = test: LPS-induced TNFa secretion in primary human PBMC-derived macrophages (ELISA); format: cell-based; conditions: Donor 2; in words
Method: (§1) Unpurified buffy coats (Research Blood Components) were carefully poured into 50 mL centrifuge tubes and diluted with room temperature Dulbecco's Phosphate Buffered Saline (dPBS) with Calcium and Magnesium (Gibco). Diluted buffy coats were further divided into four total 50 mL centrifuge tubes at 20 mL per tube. Lymphocyte Separation Medium (Corning) was carefully pipetted to the bottom of each centrifuge tube. Mixtures were centrifuged at 850× g for 32 minutes at 20° C. with 0 deceleration and acceleration.
(§2) The PBMC layer was separated from other components after centrifugation and added to new 50 mL centrifuge tube containing 25 mL dPBS. Total volume was brought up to 50 mL with dPBS and centrifuged at 600× g for 10 minutes at 20° C. with acceleration of 9, deceleration of 5. Supernatant was carefully removed from cell pellets. The cell pellets were resuspended using 10 mL dPBS. Total volume was then brought up to 50 mL using dPBS and centrifuged at 450× g for 5 min at 20° C. with acceleration of 9, deceleration of 9. The supernatant removal and cell pellet resuspension was repeated again.
(§3) The supernatant was then carefully removed from cell pellets. Cell pellets were resuspended in 10 mL dPBS without calcium or magnesium and filtered through a 70 uM cell strainer. The total PBMC number was determined using a Cellometer K2 automated cell counter. A total of 5E6 cells were saved for flow cytometric analysis. Remaining cells were centrifuged at 490× g for 5 minutes at 20° C. with acceleration of 9, deceleration of 9.
(§4) CD14+ cells were selected using EasySep™ Human CD14 Positive Selection Kit II ([…] Technologies). Cells were resuspended in cold EasySep™ Buffer ([…] Technologies) at 1×10^8 cells/mL. A total of 100 uL/mL EasySep™ Human CD14 Positive Selection Cocktail II was added to the cell suspension, mixed, and incubated at room temperature for 10 minutes. A total of 100 uL/mL RapidSpheres were added to the mixture and incubated at room temperature for 3 minutes after mixing, then RoboSep buffer was added to bring up the total volume to 10 mL. The mixture in a 15 mL tube was placed in magnet and incubated at room temperature for 3 minutes. Supernatant was discarded and 10 mL fresh EasySep™ buffer was added to 15 mL tube. The addition of RoboSep buffer, mixing, and discarding of supernatant was repeated two more times.
(§5) Negative and positive fractions were centrifuged at 490× g for 5 minutes at 20° C. with acceleration of 9, deceleration of 9, and resuspended in DMEM (Gibco) and 10% Heat Inactivated Fetal Bovine Serum (Atlanta Bio) and Penicillin/Streptomycin. Cells were counted and centrifuged again at […] for 5 minutes at 20° C. with acceleration of 9, deceleration of 9. After centrifugation, cell were resuspended in DMEM (Gibco) and 10% Heat Inactivated Fetal Bovine Serum (Atlanta Bio) and Penicillin/Streptomycin containing 500 U/mL […] and plated at 1-2×10^6 cells/mL on 10 cm tissue culture plates. Cells were kept in 37° C., 5% CO2 in between feedings/harvest.
(§6) Cells were fed every 3-4 days by removing media and unattached cells, centrifuging at 490× g for 5 minutes at 20 C with acceleration of 9, deceleration of 9, and resuspending in fresh DMEM (Gibco) and 10% Heat Inactivated Fetal Bovine Serum (Atlanta Bio) and Penicillin/Streptomycin containing GM-CSF. Resuspended cells were seeded back onto 10 cm tissue culture plates and incubated at 37° C., 5% CO2. Differentiated macrophages were used for subsequent experiments.
(§7) Primary human PMBC derived macrophages were seeded on day 0 at 3.0E4 cells per well in 96-well microplates (ThermoFisher) in Dulbecco's Modified Eagle Medium (DMEM) (Gibco) supplemented with penicillin-streptomycin (Hyclone) and 10% heat inactivated fetal bovine serum (HI-FBS) (Atlanta Bio) and incubated overnight at 37° C., 5% CO2. On day 1, cells were washed once with 150 uL per well DPBS (Gibco) and treated with 75 uL of: • a. […]

[2] = tested on: RBCs of healthy whole blood; test: RBC deformability (LORRCA elongation index), ex vivo TBHP oxidation of healthy whole blood; format: cell-based, human; conditions: healthy donor 2, single amino acid treatments, in words
From the text: Whole blood from healthy African American and/or Hispanic donors was obtained from Research Blood Components, LLC based on the following donor selection criteria: Adult age (between 18 and 50 years), normal BMI (<30), and absence of other confounding clinical conditions. Whole blood from SCD donors were obtained from BioIVT based on the following donor selection criteria: Patients with genotypes HbSS, HbSC, HbS/β^0 and at least 1-2 months gap since last blood transfusion. Whole blood was shipped on ice on the same day as blood draw. Upon receipt, the blood sample was aliquoted and stored in the refrigerator until used for studies.
RBC deformability measurements were conducted with the Laser Optical Rotational Red Cell Analyzer (LORRCA) from RR Mechatronics in a temperature-controlled environment (37° C.). Briefly, an even layer of RBCs suspended in polyvinylpyrrolidone (PVP) is subjected to shear stress gradient (0.3 to 30 Pa) through two concentric cylinders and the resulting changes in RBC shape or deformability are measured by a laser beam diffraction pattern. The captured images of RBC shape in response to increasing shear stress are then analyzed by the LORRCA program to calculate Elongation Index (EI).
Healthy RBCs have higher deformability≥0.5 EI and SCD RBCs have lower deformability or EI values as studied by LORRCA ektacytometry in the field. […] The induced hemolysis model in this disclosure involves use of tert-butyl hydroperoxide (TBHP) to lower EI of RBCs.
The ex vivo hemolysis study disclosed here involves overnight treatment of whole blood with vehicle as a control and specific amino acids followed by rapid oxidation (5 min) with TBHP. Method for oxidation of whole blood with tert-butyl hydroperoxide has been used in prior literature (Diederich L, et al, Front Physiol. 2018 May 11; 9:332). RBC deformability or shape changes are then measured with LORRCA ektacytometry.
Whole blood aliquots stored in the fridge were brought up to room temperature while gently shaking on a rocker at low speed for an hour to ensure gradual and uniform suspension of red blood cells prior to deformability measurements. Vehicle control used in the study was 1× Dulbecco's […]) and amino acids disclosed herein were added (at either final […] or 2.5 mM concentration as indicated) to corresponding vehicle and amino acid treatment conditions. The samples were then incubated overnight at 37° C. Next day, 25 μL of whole blood was taken from each treatment condition and added to 5 mL Elon ISO viscous solution from RR Mechatronics. The sample was inverted 15-20 times to ensure proper mixing of the treated RBCs with the Elon ISO solution followed by loading the sample on LORRCA and capturing RBC deformability or shape measurements over the applied shear gradient. The remaining whole blood treatments were returned to incubator (37° C.) until deformability measurements were completed for all treatments. To the remaining whole blood treatment samples, TBHP solution (5.0-6.0 M in Decane, Sigma) was added at 2.5 mM final concentration from a 100 mM freshly prepared stock and incubated for further 5 min at 37° C. 25 μL of this TBHP-treated sample was immediately removed at the end of the 5 min incubation and added to the Elon ISO solution for RBC deformability measurement after oxidation. Included in the Tables 13-15 are EI measurements at ½ EImax shear stress 1.69 Pa and EImax shear stress 30 Pa from these studies and FIG. 1 captures EI measurements for all shear stress points for the indicated treatment conditions.

VCAM-1 = VCAM-1 cell integrated intensity in HLMVEC treated with TNFa; format: cell-based, human; conditions: 0.5 ng/mL TNFα; amino acids at 20×; 24 hours; in words
From the text: A VEC model was employed to assess the ability of amino acids to influence aspects of vascular dysfunction in SCD. TNFa treatment of healthy donor HLMVEC mimics the SCD disease state and induces expression of adhesion markers ICAM-1 and VCAM-1, and secretion of proinflammatory cytokine IL-6. It is established that levels of ICAM-1, VCAM-1, and IL-6 can contribute to SCD pathology and correlate with the incidence and severity of complications in SCD patients. The VEC model sought to test the ability of amino acids to reduce the TNFa-induced disease phenotype by lowering expression of adhesion markers (ICAM-1 and VCAM-1) and inflammatory cytokines (IL-6) while promoting VEC health and viability.
Primary Human Lung Microvascular Endothelial Cells (HLMVEC; Lonza) were seeded at 6,000 cells per well in Endothelial Cell Growth Basal Medium-2 (Lonza) supplemented with Fetal Bovine Serum (FBS; Lonza), human EGF (Lonza), human VEGF (Lonza), R3-Insulin-like Growth Factor-1 (Lonza), ascorbic acid (Lonza), hydrocortisone (Lonza), human FGF-beta (Lonza), and gentamicin/amphotericin-b (Lonza) in a 96-well plate (Thermo Fisher). The cells were incubated for 45 minutes at room temperature, then incubated overnight at 37° C./5% CO2.
Following overnight incubation, cell were washed once with 150 μL of Dulbecco's phosphate buffered saline (DPBS; Gibco), and then treated with Endothelial Basal Medium MCB-131 (amino acid, glucose, sodium pyruvate, and phenol red free; US Biologicals) containing a defined custom amino acid concentration based on physiological concentrations in blood of patients with SCD (thus recapitulating observed metabolic imbalances such as the depletion of certain essential amino acids including arginine and aspartate and enrichment of certain non-essential amino acids including glutamate and asparagine), dialyzed FBS (Hyclone), human EGF (Lonza), human VEGF (Lonza), R3-Insulin-like Growth Factor-1 (Lonza), ascorbic acid (Lonza), hydrocortisone (Lonza), human FGF-beta (Lonza), and gentamicin/amphotericin-b (Lonza), glucose, 10 mM HEPES, sodium pyruvate, and sodium bicarbonate supplemented with one of the following: • a. PBS (vehicle control), • b. 0.5 ng/mL Tumor Necrosis Factor alpha (TNFα) and PBS, or; • c. 0.5 ng/mL TNFα and amino acid treatments at 20× mean physiological concentrations in plasma based on values published in the Human Metabolome Database (HMDB) in PBS.
After 24 hours of treatment, cells were washed once with 150 μL of DPBS (Gibco), then fixed with 4% paraformaldehyde. […]
Antibody binding was detected by fluorescence microscopy using a high content imager (Molecular Devices). Images were analyzed using MetaXpress 6 software to determine the integrated intensity per cell for each wavelength corresponding to ICAM-1 or VCAM-1.

IL-6 = test: LPS-induced IL-6 secretion in primary human PBMC-derived macrophages (ELISA); format: cell-based; conditions: Donor 2; in words
Method: as §1, §2, §3, §4, §5, §6, §7

[3] = male, Sprague-Dawley, in vivo, po
[4] = plasma, Mean, oral gavage of RCitNacQCarLHKVS, male Sprague-Dawley rats, read-out: AUC0-5 h
[5] = plasma, Mean, oral gavage of RCitNacQCarLHKVS, male Sprague-Dawley rats, read-out: Cmax
[6] = plasma, Mean, oral gavage of RCitNacQCarLHKVS, male Sprague-Dawley rats, read-out: Tmax

Row | AUC(0-t) [1, 4] [µM·h] | Cmax [1, 5] [µM] | Tmax [1, 6] [h] | SMILES | other results
1 |  |  |  | N[C@@H](Cc1c[nH]cn1)C(=O)O [Histidine] | AUC(0-t) [1, 3]: 157 µM·h; Cmax [1, 3]: 41.9 µM; Tmax [1, 3]: 1.25 h
2 | 463 | 126 | 1 | CC(C)[C@H](N)C(=O)O [Valine] | 
3 | 1030 | 285 | 2.25 | N[C@@H](CO)C(=O)O [Serine] | 
4 |  |  |  | CC[C@H](C)[C@H](N)C(=O)O [Isoleucine] | effect on LPS-induced TNFa secretion (TNFa): increased
5 | 1350 | 337 | 1 | NCCCC[C@H](N)C(=O)O [Lysine] | 
6 | 237 | 83.8 | 5 | C[N+](C)(C)CC(O)CC(=O)[O-] (stereo not shown) [Carnitine] | 
7 |  |  |  | NC(=O)NCCC[C@H](N)C(=O)O [Cit, citrulline] | EI over vehicle control, ½ EImax and EImax [2]: higher than the vehicle; VCAM-1 expression in HLMVEC (VCAM-1): moderate effect
8 | 586 | 170 | 0.5 | CC(C)C[C@H](N)C(=O)O [Leucine] | effect on LPS-induced IL-6 secretion (IL-6): increased; effect on LPS-induced TNFa secretion (TNFa): increased
9 |  |  |  | C[N+](C)(C)CC(O)CC(=O)[O-] (stereo not shown) [Car, carnitine] | EI over vehicle control, ½ EImax and EImax [2]: higher than the vehicle; VCAM-1 expression in HLMVEC (VCAM-1): moderate effect

Row | SMILES | AUC(0-t) [1, 4] [µM·h] | Cmax [1, 5] [µM] | Tmax [1, 6] [h] | other results
10 | NC(=O)NCCC[C@H](N)C(=O)O [Citrulline] | 2090 | 583 | 2.5 | 
